Reference: patent US5300491A, “Treatment of protozoal infection” (priority 1992, dated 1994)
Where “and” joins values, the source holds several entries; their conditions need not be identical. Identical values can stand only once.

Columns and labels:
Cryptosporidium parvum = type: in vivo, Human
Text: The patient was a child, weighing approximately 30 kg. For years, the patient had suffered from moderate diarrhea. Prior to being treated with zinc bacitracin, the patient's stool repeatedly tested positive for intestinal Cryptosporidia. […] The patient received sulfonamide and cefalexin for the influenza during the hiatus. The zinc bacitracin treatment resumed approximately one month later and continued for two weeks thereafter.
After the treatment period, it was observed that the drug was well-tolerated by the patient.

[1] = system: histidine auxotrophs of Salmonella typhimurium; conditions: absence and presence of a rat liver activating system; cited from earlier work
[2] = system: human peripheral lymphocytes; conditions: cited from earlier work
G. lamblia = G. lamblia clinical study; type: in vivo, Human; conditions: for patients responding: 200,000 IU daily as tablets for ten days
Text: Based upon this dosage, 6 of the ten metronida-zole-resistant patients in Sweden responded to this regime. In addition, all of the 11 non-selected patients in Romania responded to this regime. Eight of these 11 non-selected patients remained clear of infection for the length of the study.

[3] = cited from earlier work
spleen cells of rats = conditions: rat, in vivo; cited from earlier work
E. histolytica = assay: Amoebiasis clinical study; type: in vivo, Human
Method: Cysts and trophozoites of E. histolytica were detected initially by wet preparation screening of faeces, and later confirmed by the formal-ether technique. Full parasitological cure was based upon the presentation of 1-2 negative stool samples within one week post treatment.
In a dose-effect segment of the study, two groups of symptomatic E. histolytica cyst or trophozoite passers attending an outpatient clinic for abdominal pains were treated for either ten or five days.
In a dose-duration study, three groups of patients were observed: Group 1 - symptomatic cyst and trophozoite passers; Group 2 - dysenteric patients with bloody diarrheas; and, Group 3 - asymptomatic cyst passers.

Micrococcus uteus = conditions: as obtained from Apothekernes Laboratorium A.S; cited from earlier work
Giardia lamblia = type: cell-based; conditions: Portland isolate
Method: A Portland isolate of G. lamblia was treated with bacitracin and zinc bacitracin according to the procedure of Example IV. An Oxoid HP 11 anaerobic gas chamber and BR 38 gas generating kit were used to produce an anaerobic environment. […] The parasites were incubated in the presence of the treating reagent for 2 4 hours. The viability of the parasites was based on morphology and motility.

Tritrichomonas foetus = Tritrichomonas foetus assay (MLC); type: cell-based
Method: Duplicate plates of each isolate were prepared. One set of plates was exposed to an aerobic environment; and, the second set was exposed to an anaerobic environment. An Oxoid HP 11 anaerobic gas chamber and BR 38 gas generating kit were used to produce the anaerobic environment. […]

Trichomonas vaginalis = Trichomonas vaginalis assay (MLC, aerobic and anaerobic); type: cell-based
Method: All isolates were treated with either bacitracin or zinc bacitracin.
Prior to being diluted with the medium, the bacitracins were initially solubilized in water to 250 mg/ml. The zinc salt was solubilized in acidified water (60 μl HC1/ml). Duplicate plates of each isolate were prepared. one set of plates was exposed to an aerobic environment; and, the second set was exposed to an anaerobic environment. An Oxoid HP 11 anaerobic gas chamber and BR 38 gas generating kit were used to produce the anaerobic environment.

[4] = 11 non-selected patients in Romania
[5] = Group 1, 9 patients treated for two days
[6] = Group 1, 12 patients treated for 3 days
[7] = Table 5 dose-effect study, symptomatic cyst & trophozoite passers, 100,000 I.U. daily for 5 days, 5 patients
[8] = Table 5 dose-effect study, symptomatic cyst & trophozoite passers, 100,000 I.U. daily for 10 days, 9 patients
[9] = Table 6 dose-duration study, Group 1 symptomatic cyst and trophozoite passers, 1 day, 2 patients
[10] = Table 6 dose-duration study, Group 1 symptomatic cyst and trophozoite passers, 2 days, 9 patients
[11] = Table 6 dose-duration study, Group 1 symptomatic cyst and trophozoite passers, 3 days, 12 patients
[12] = Table 6 dose-duration study, Group 1 symptomatic cyst and trophozoite passers, 5 days, 5 patients
[13] = Table 7 dose-duration study, Group 2 dysentery cases, 3 days, 5 patients
[14] = Table 8 dose-duration study, Group 3 asymptomatic cyst passers, 3 days, 9 patients
[15] = Table 8 dose-duration study, Group 3 asymptomatic cyst passers, 5 days, 9 patients

Which results are given for Zinc bacitracin?
stool parasites over the course of the treatment period (Cryptosporidium parvum; child, 30,000 units thrice daily, 8 days and later two weeks): No stool parasites were detected; tolerability (Cryptosporidium parvum; human, in vivo): well-tolerated; stool test after end of treatment (Cryptosporidium parvum; one week after the final discontinuation of treatment): began to once again test positive for intestinal cryptosporidia; mutagenic potential [1]: devoid of mutagenic potential; damage to chromosomal structure [2]: did not induce any damage to the chromosomal structure; patients remaining clear of infection for the length of the study (G. lamblia; [4]): Eight; patients responding (G. lamblia; [4]): 11; patients responding (G. lamblia; ten metronidazole-resistant patients in Sweden): 6; absorption from the gut ([3]; rat, in vivo, po): not absorbed from the gut; levels in the livers ([3]; rat, in vivo, po): No detectable levels; oral toxicity ([3]; rats, sub-chronic and chronic, feed levels up to 1,000 ppm): non-toxic; nucleoid sedimentation velocity (spleen cells of rats): Only a small reduction in nucleoid sedimentation velocity; cure (E. histolytica; 100,000 I.U. daily for 3-5 days): 100%; cure rate (E. histolytica; [5]): 55%; relapse rate (E. histolytica; [5]): 60%; patients relapsed (at days 6 and 10) (E. histolytica; [6]): 16%; primary cure rate (E. histolytica; [6]): 100%; treatment outcome (E. histolytica; Group 1, two patients treated for 1 day): without success; subjects showing parasites in their stools again after two weeks (E. histolytica; Group 3 asymptomatic cyst passers, five-day regimen, 9 subjects): 44%; Number Relapsing (E. histolytica; [7]): 0; Number Responding (E. histolytica; [7]): 5; Number Relapsing (E. histolytica; [8]): 0; Number Responding (E. histolytica; [8]): 9; Number Relapsing (E. histolytica; [9]): 1; Number Responding (E. histolytica; [9]): 1; Number Relapsing (E. histolytica; [10]): 3; Number Responding (E. histolytica; [10]): 5; Number Relapsing (E. histolytica; [11]): 2; Number Responding (E. histolytica; [11]): 12; Number Relapsing (E. histolytica; [12]): 1; Number Responding (E. histolytica; [12]): 5; Number Relapsing (E. histolytica; [13]): 1; Number Responding (E. histolytica; [13]): 5; Number Relapsing (E. histolytica; [14]): 2; Number Responding (E. histolytica; [14]): 8; Number Relapsing (E. histolytica; [15]): 4; Number Responding (E. histolytica; [15]): 9; side effects (E. histolytica; all patients of the amoebiasis clinical study, 100,000 I.U. daily): No side effects were reported; cure rate (E. histolytica; dose-effect study, 9 patients treated for 10 days): 100%; Potency of the material used (Micrococcus uteus): 65 I.U./mg; MLC (second of the two columns per drug) (Giardia lamblia; anaerobic, 24 hours, two lines of values): > 400 IU/ml and 300 IU/ml; MICs (Giardia lamblia; converted from IU/ml): 2.3 to 6.3 mg/mL; MLC (Tritrichomonas foetus; isolate 121, aerobic): 6000 µg/mL; MLC (Tritrichomonas foetus; isolate 121, anaerobic): 6000 µg/mL; MLC (Tritrichomonas foetus; isolate 138, aerobic): 6000 µg/mL; MLC (Tritrichomonas foetus; isolate 138, anaerobic): 6000 µg/mL; MLC (Tritrichomonas foetus; isolate ATCC 30166, aerobic): 6000 µg/mL; MLC (Tritrichomonas foetus; isolate ATCC 30166, anaerobic): 6000 µg/mL; MLC (Tritrichomonas foetus; isolate FT.3741, aerobic): 6000 µg/mL; MLC (Tritrichomonas foetus; isolate FT.3741, anaerobic): 5000 µg/mL; MLC (Tritrichomonas foetus; isolate S10, aerobic): 6000 µg/mL; MLC (Tritrichomonas foetus; isolate S10, anaerobic): 6000 µg/mL; MLC (Tritrichomonas foetus; isolate TF.7, aerobic): 6000 µg/mL; MLC (Tritrichomonas foetus; isolate TF.7, anaerobic): 6000 µg/mL; MLC (Trichomonas vaginalis; isolate 1031, metronidazole-sensitive, aerobic): 250 IU/ml; MLC (Trichomonas vaginalis; isolate 1031, metronidazole-sensitive, anaerobic): 350 IU/ml; MLC (Trichomonas vaginalis; isolate 1043, metronidazole-sensitive, aerobic): 350 IU/ml; MLC (Trichomonas vaginalis; isolate 1043, metronidazole-sensitive, anaerobic): 350 IU/ml; MLC (Trichomonas vaginalis; isolate 1044, metronidazole-sensitive, aerobic): 250 IU/ml; MLC (Trichomonas vaginalis; isolate 1044, metronidazole-sensitive, anaerobic): 300 IU/ml; MLC (Trichomonas vaginalis; isolate 1064, metronidazole-sensitive, aerobic): 250 IU/ml; MLC (Trichomonas vaginalis; isolate 1064, metronidazole-sensitive, anaerobic): 300 IU/ml; MLC (Trichomonas vaginalis; isolate 1065, metronidazole-sensitive, aerobic): 300 IU/ml; MLC (Trichomonas vaginalis; isolate 1065, metronidazole-sensitive, anaerobic): 400 IU/ml; MLC (Trichomonas vaginalis; isolate 1165, metronidazole-sensitive, aerobic): 350 IU/ml; MLC (Trichomonas vaginalis; isolate 1165, metronidazole-sensitive, anaerobic): 250 IU/ml; MLC (Trichomonas vaginalis; isolate 1910, metronidazole-sensitive, aerobic): 400 IU/ml; MLC (Trichomonas vaginalis; isolate 1910, metronidazole-sensitive, anaerobic): 350 IU/ml; MLC (Trichomonas vaginalis; isolate 6950, metronidazole-sensitive, aerobic): 350 IU/ml; MLC (Trichomonas vaginalis; isolate 6950, metronidazole-sensitive, anaerobic): 400 IU/ml; MLC (Trichomonas vaginalis; isolate 89532.2, metronidazole-insensitive, aerobic): 350 IU/ml; MLC (Trichomonas vaginalis; isolate 89532.2, metronidazole-insensitive, anaerobic): 350 IU/ml; MLC (Trichomonas vaginalis; isolate 90576, metronidazole-insensitive, aerobic): 250 IU/ml; MLC (Trichomonas vaginalis; isolate 90576, metronidazole-insensitive, anaerobic): 350 IU/ml; MLC (Trichomonas vaginalis; isolate CDC85, metronidazole-insensitive, aerobic): 350 IU/ml; MLC (Trichomonas vaginalis; isolate CDC85, metronidazole-insensitive, anaerobic): 350 IU/ml; MLC (Trichomonas vaginalis; isolate IR78, metronidazole-insensitive, aerobic): 300 IU/ml; MLC (Trichomonas vaginalis; isolate IR78, metronidazole-insensitive, anaerobic): 300 IU/ml; MLC (Trichomonas vaginalis; isolate PHLS289, metronidazole-insensitive, aerobic): 200 IU/ml; MLC (Trichomonas vaginalis; isolate PHLS289, metronidazole-insensitive, anaerobic): 250 IU/ml; MLC (Trichomonas vaginalis; isolate STH-1, metronidazole-insensitive, aerobic): 250 IU/ml; MLC (Trichomonas vaginalis; isolate STH-1, metronidazole-insensitive, anaerobic): 350 IU/ml; MLC (Trichomonas vaginalis; isolate UCH-1, metronidazole-sensitive, aerobic): 400 IU/ml; MLC (Trichomonas vaginalis; isolate UCH-1, metronidazole-sensitive, anaerobic): 400 IU/ml; MLC (Trichomonas vaginalis; isolate UCH-2, metronidazole-sensitive, aerobic): 350 IU/ml; MLC (Trichomonas vaginalis; isolate UCH-2, metronidazole-sensitive, anaerobic): 400 IU/ml; MLC (Trichomonas vaginalis; isolate UCH-M1, metronidazole-sensitive, aerobic): 250 IU/ml; MLC (Trichomonas vaginalis; isolate UCH-M1, metronidazole-sensitive, anaerobic): 250 IU/ml; MLC (Trichomonas vaginalis; isolate UOB-1, metronidazole-sensitive, aerobic): 400 IU/ml; MLC (Trichomonas vaginalis; isolate UOB-1, metronidazole-sensitive, anaerobic): 400 IU/ml; MLCs (Trichomonas vaginalis; span over metronidazole-sensitive isolates, converted from IU/ml): 3.13 to 5.47 mg/mL
